Experimental data published in ChEMBL document CHEMBL1140885, “Novel naphthalimide-amino acid conjugates with flexible leucine moiety as side chain: design, synthesis and potential antitumor activity” (Bioorg Med Chem, 2009).

Experiments:
P388 = assay: Cytotoxicity against mouse P388 cells after 48 hrs by MTT assay; format: functional, cell-based; settings: P388, 48 h
HCT-8 = assay: Cytotoxicity against human HCT8 cells after 48 hrs by MTT assay; format: functional, cell-based; settings: HCT-8, 48 h
HL-60 = assay: Cytotoxicity against human HL60 cells after 48 hrs by MTT assay; format: functional, cell-based; settings: HL-60, 48 h
A549 = assay: Cytotoxicity against human A549 cells after 72 hrs by SRB assay; format: functional, cell-based; settings: A549, 72 h
HeLa = assay: Cytotoxicity against human HeLa cells after 48 hrs by MTT assay; format: functional, cell-based
MCF7 = assay: Cytotoxicity against human MCF7 cells after 48 hrs by MTT assay; format: functional, cell-based; settings: MCF7, 48 h
A-375 = assay: Cytotoxicity against human A375 cells after 48 hrs by MTT assay; format: functional, cell-based; settings: A-375, 48 h
Albumin = Albumin (Bos taurus, UniProt P02769); assay: Binding affinity to bovine serum albumin at 10 uM after 15 mins by spectrophotometric titration; format: ADME; settings: cattle, isolated protein, 0.25 h
Sequence of Albumin (P02769 whole entry): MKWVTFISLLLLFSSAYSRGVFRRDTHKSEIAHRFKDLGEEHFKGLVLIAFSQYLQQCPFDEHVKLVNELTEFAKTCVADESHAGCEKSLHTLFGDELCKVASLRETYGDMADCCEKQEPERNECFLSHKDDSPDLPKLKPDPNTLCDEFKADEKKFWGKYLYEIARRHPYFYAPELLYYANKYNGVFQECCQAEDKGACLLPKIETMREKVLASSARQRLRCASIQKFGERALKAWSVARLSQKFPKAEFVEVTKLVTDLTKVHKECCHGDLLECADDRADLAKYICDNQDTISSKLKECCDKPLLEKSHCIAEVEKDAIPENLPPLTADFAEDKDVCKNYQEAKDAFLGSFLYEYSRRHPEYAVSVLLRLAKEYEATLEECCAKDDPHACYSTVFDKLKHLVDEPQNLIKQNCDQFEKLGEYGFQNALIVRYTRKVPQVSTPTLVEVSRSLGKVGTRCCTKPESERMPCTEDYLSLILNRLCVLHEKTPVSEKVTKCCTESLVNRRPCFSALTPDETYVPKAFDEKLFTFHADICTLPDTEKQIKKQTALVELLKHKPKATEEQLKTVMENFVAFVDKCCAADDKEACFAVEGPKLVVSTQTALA

DNA [1] = assay: Binding affinity to calf thymus DNA by fluorescence titration; format: nucleic-acid assay; settings: Bos taurus
DNA [2] = assay: Binding affinity to calf thymys DNA assessed as increase in viscosity; format: nucleic-acid assay; settings: Bos taurus

**Q.** How did the IC50 (P388) turn out when CC(C)C[C@@H](C(=O)Nc1ccc(S(=O)(=O)c2ccc(N)cc2)cc1)N1C(=O)c2cccc3c(NCCSc4ccccc4)ccc(c23)C1=O was run?
**A.** > 50 µM

**Q.** And the IC50 (HCT-8)?
**A.** > 50 µM

**Q.** And the IC50 (HL-60)?
**A.** > 50 µM

**Q.** What about the IC50 (A549) of the same compound?
**A.** > 50 µM

**Q.** What about the IC50 (HeLa) of the same compound?
**A.** > 50 µM

**Q.** And the IC50 (MCF7)?
**A.** 24.6 µM

**Q.** And the IC50 (A-375)?
**A.** > 50 µM

**Q.** And the Activity (Albumin)?
**A.** Active

**Q.** For CC(C)C[C@@H](C(=O)Nc1ccc(S(N)(=O)=O)cc1)N1C(=O)c2cccc3c(NCCSc4ccccc4)ccc(c23)C1=O, which IC50 (P388) is on record?
**A.** > 50 µM

**Q.** And the IC50 (HCT-8)?
**A.** > 50 µM

**Q.** And the IC50 (HL-60)?
**A.** > 50 µM

**Q.** What about the IC50 (A549) of the same compound?
**A.** > 50 µM

**Q.** What about the IC50 (HeLa) of the same compound?
**A.** > 50 µM

**Q.** And the IC50 (MCF7)?
**A.** 12.6 µM

**Q.** What about the IC50 (A-375) of the same compound?
**A.** > 50 µM

**Q.** What about the Activity (Albumin) of the same compound?
**A.** Active

**Q.** COc1cc(-c2ccc(NC(=O)[C@H](CC(C)C)N3C(=O)c4cccc5c(NCCSc6ccccc6)ccc(c45)C3=O)c(OC)c2)ccc1N was tested. Which IC50 (P388) did it give?
**A.** > 50 µM

**Q.** What about the IC50 (HCT-8) of the same compound?
**A.** > 50 µM

**Q.** What about the IC50 (HL-60) of the same compound?
**A.** > 50 µM

**Q.** What about the IC50 (A549) of the same compound?
**A.** > 50 µM

**Q.** What about the IC50 (HeLa) of the same compound?
**A.** > 50 µM

**Q.** And the IC50 (MCF7)?
**A.** 9.45 µM

**Q.** And the IC50 (A-375)?
**A.** > 50 µM

**Q.** And the Activity (Albumin)?
**A.** Active

**Q.** What does the source list for CC(C)C[C@@H](C(=O)Nc1ccc(S(N)(=O)=O)cc1)N1C(=O)c2cccc3c(NCCN(C)C)ccc(c23)C1=O?
**A.** IC50 (P388): 7.23 µM; IC50 (HCT-8): > 50 µM; IC50 (HL-60): 17.8 µM; IC50 (A549): > 50 µM; Ka (DNA [1]): 4.92 ×10⁴ /M; IC50 (HeLa): 8.09 µM; Activity (DNA [2]): Dose-dependent effect; IC50 (MCF7): 8.65 µM; IC50 (A-375): 6.6 µM

**Q.** Which IC50 (P388) does the source give for COc1cc(-c2ccc(NC(=O)[C@H](CC(C)C)N3C(=O)c4cccc5c(NCCN(C)C)ccc(c45)C3=O)c(OC)c2)ccc1N here?
**A.** 7.67 µM

**Q.** And the IC50 (HCT-8)?
**A.** > 50 µM

**Q.** And the IC50 (HL-60)?
**A.** 22.8 µM

**Q.** What about the IC50 (A549) of the same compound?
**A.** 25.1 µM

**Q.** What about the IC50 (HeLa) of the same compound?
**A.** 6.74 µM

**Q.** And the IC50 (MCF7)?
**A.** 15 µM

**Q.** And the IC50 (A-375)?
**A.** 6.51 µM

**Q.** What does the source list for CC(C)C[C@@H](C(=O)Nc1ccc(S(=O)(=O)c2ccc(N)cc2)cc1)N1C(=O)c2cccc3c(NCCN(C)C)ccc(c23)C1=O?
**A.** IC50 (P388): > 50 µM; IC50 (HCT-8): > 50 µM; IC50 (HL-60): > 50 µM; IC50 (A549): 17.2 µM; IC50 (HeLa): > 50 µM; IC50 (MCF7): 8.64 µM; IC50 (A-375): > 50 µM
